Test results: US20250332173A1, “COMPOUNDS AND METHODS FOR MODULATING NUCLEIC ACID SPLICING” (REMIX THERAPEUTICS INC., priority 2021, published 2025)
pIC50: −log10 of the molar value.

What was measured:
HTT = assay: HiBiT protein abundance assay, HTT HiBiT K562 cell line; type: cell-based, human; conditions: HiBiT K562 cell line, 24 hours, top dose 10 μM; read-out: Effect on protein abundance, HTT (IC50 category)
Outline: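 Endogenous targets in K562 knock-in lines carried a HiBiT tag and were treated for 24 h at 37 °C with 10-point 3-fold dilutions (top 10 μM final, DMSO ≤0.25%). Abundance was read as lytic Nano-Glo HiBiT luminescence. IC50 came from a four-parameter logistic fit of normalized response.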

Target C = assay: HiBiT protein abundance assay, Target C (Promega Nano-Glo HiBiT Lytic Detection System, knock-in K562 cell line); type: cell-based, human; conditions: Homo sapiens, K562, 24 h, HiBiT K562 cell line, 24 hours, top dose 10 μM; read-out: Effect on protein abundance, Target C (IC50 category)
Outline: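 HiBiT knock-in K562 cells (10,000/well) were treated for 24 h at 37 °C with a 10-point 3-fold dilution series, top final concentration 10 μM, DMSO ≤0.25%. Lytic HiBiT luminescence was read, normalized to unmodified K562 and DMSO-treated controls, and IC50 was interpolated from a four-parameter logistic fit.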

pIC50 (HTT)	pIC50 (Target C)	Compound
< 5.00	< 5.00	Cc1cn2cc(-n3ccc4cc(N5C[C@@H](C)N[C@@H](C)C5)ccc4c3=O)nc(C)c2n1 [Compound 454, 2-{2,8-dimethylimidazo[1,2-a]pyrazin-6-yl}-6-[(3R,5S)-3,5-dimethylpiperazin-1-yl]isoquinolin-1-one]
< 5.00	< 5.00	Cc1cn2cc(-c3ccc4c(=O)n([C@H]5CCNC5)cc(C)c4c3)cc(C#N)c2n1 [Compound 456, (S)-2-methyl-6-(4-methyl-1-oxo-2-(pyrrolidin-3-yl)-1,2-dihydroisoquinolin-6-yl)imidazo[1,2-a]pyridine-8-carbonitrile]
> 7.00	6.00 to 7.00	Cc1cn2cc(-c3cc(F)c4c(=O)n(C5CCNCC5)cc(C)c4c3)cc(F)c2n1 [Compound 461, 8-fluoro-6-{8-fluoro-2-methylimidazo[1,2-a]pyridin-6-yl}-4-methyl-2-(piperidin-4-yl)isoquinolin-1-one]
5.00 to 6.00	5.00 to 6.00	Cc1cn2nc(-c3cc(O)c4c(=O)n(C5CCNC5)cc(C)c4c3)cc(C)c2n1 (centres unmarked) [Compound 462]
< 5.00	< 5.00	Cn1cc2c(n1)CCN(c1ccc3c(=O)n(C4CCNCC4)ccc3c1)C2 [Compound 509, 6-{2-methyl-4H,6H,7H-pyrazolo[4,3-c]pyridin-5-yl}-2-(piperidin-4-yl)isoquinolin-1-one]
6.00 to 7.00	5.00 to 6.00	Cc1cn2cc(-c3ccc4c(=O)n(C5CCNC6(CC6)C5)ncc4c3)cc(Cl)c2n1 (centres unmarked) [Compound 510]
6.00 to 7.00	6.00 to 7.00	Cn1cc2nc(-c3ccc4c(=O)n(C5CCNC6(CC6)C5)ncc4c3)ccc2n1 (centres unmarked) [Compound 511]
